Common to all, as to experiment: NCI-60 cell line screen, 48 h
The test system of assay [1] is MALME-3M melanoma.
Assay [2] concerns SF-295 CNS.
Assay [3] has as its system EKVX NSCLC.
For assay [4], the system named is NCI-H460 lung.
In assay [5] the test system is CAKI-1 renal.
Assay [6] has as its system ACHN renal.
The test system of assay [7] is A549 NSCLC.
The subject of assay [8] is U251 CNS.
Assay [9] concerns HT29 colon.
Assay [10] relates to CCRF-CEM leukemia.

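These data come from cells grown in 96-well plates and exposed to compound for 48 hours at five concentrations. GI50 marks 50% less growth. TGI: concentration producing complete growth inhibition.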

Turning to `O=CCC1CCCCC1`, the TGI in [1], in [2], in [3], in assay [4], in assay [5] and in assay [6] was greater than 100 µM each time. This molecule also registered a TGI in assay [7] greater than 100 µM.

`CSc1nc(=O)n(CCC#N)nc1SC`: the TGI in assay [8] was greater than 100 µM; in [1], 48.6 µM; in [2], greater than 100 µM; in assay [3], greater than 100 µM; in assay [4] it was greater than 100 µM; in assay [5] it was greater than 100 µM. The TGI in [9], in [6] and in assay [7] was greater than 100 µM throughout.

Turning to `N=C(N)C1CN(CCc2c[nH]c3ccccc23)C(=O)NC1=O` (stereo not drawn), the TGI in assay [8], in [1], in assay [2], in assay [3], in assay [4] and in assay [9] was greater than 100 µM in each case. The TGI in assay [6], in assay [7] and in assay [10] was greater than 100 µM throughout.

As for `NC(=S)N/N=C/C(=O)O`, the GI50 in [8], in assay [2], in assay [4], in assay [5], in [9] and in assay [6] was greater than 100 µM in each case. Moreover, the GI50 in [7] is 96.8 µM; in [10], 65.4 µM. Further, the TGI in assay [8], in assay [2], in [4], in [5], in [9] and in assay [6] was greater than 100 µM each time. Also, the TGI in assay [7] and in [10] was greater than 100 µM throughout.

Consider `CCC(=O)CC(=O)CCC(=O)Nc1cc(C)ccc1C`, for which the TGI in assay [8], in [1], in assay [2], in assay [3], in [4] and in assay [9] was greater than 100 µM in each case. The TGI in assay [6], in assay [7] and in assay [10] was greater than 100 µM throughout.

In the case of `Cc1ccc(S(=O)(=O)Nc2ccccc2C=O)cc1`, the TGI was 30.2 µM in assay [8]; 46.1 µM in assay [1]; 85.6 µM in [2]; 61.1 µM in assay [3]; 47 µM in [4]; greater than 100 µM in [5]. For the same molecule, the values for the TGI in assay [9], in [6] and in assay [7] were 49.3 µM, 46.7 µM and greater than 100 µM, respectively.

Consider `NC(=O)/C=C/C(=O)c1c(Cl)cccc1Cl`, for which the GI50 in assay [8] is 1.36 µM; in assay [1], 0.358 µM; in assay [2], 2.54 µM; in assay [4] it was 1.82 µM; in assay [5], 0.971 µM; in assay [9], 1.55 µM. Further, the values for the GI50 in [6] and in assay [7] were 0.323 µM and 1.79 µM, respectively. The TGI was 2.67 µM in assay [8]; 1.71 µM in assay [1]; 7.35 µM in assay [2]; 3.49 µM in assay [4]; 2.5 µM in assay [5]; greater than 100 µM in assay [9]. For the same molecule, the TGI in assay [6] is 0.853 µM; in assay [7], 3.39 µM.

Regarding `NC(=S)N/N=C(\CC1OC(=O)c2ccccc21)c1ccc(Cl)cc1` (stereo not drawn), the TGI is 73.6 µM in [8]; greater than 100 µM in assay [1]; greater than 100 µM in assay [2]; greater than 100 µM in [4]; 99.2 µM in assay [5]; 65.9 µM in [9]. Moreover, the TGI in [6] and in assay [7] was greater than 100 µM in each case.

Consider `Nc1ccc([N+](=O)[O-])cc1N=C/C=C/c1ccccc1`, for which the GI50 in assay [8] was 6.16 µM; in [1], 25.1 µM; in assay [2] it was 21.7 µM; in assay [3] it was 19.1 µM; in assay [4], 11.3 µM; in assay [9] it was 5.05 µM. The GI50 in [6] was 34.4 µM; in assay [7], 21.9 µM. For the same molecule, the TGI is 77.5 µM in assay [8]; greater than 100 µM in assay [1]; greater than 100 µM in assay [2]; greater than 100 µM in assay [3]; 41.9 µM in assay [4]; 67.1 µM in assay [9]. Also, the TGI in assay [6] and in assay [7] was greater than 100 µM throughout.

On to `COc1cccc(F)c1C(=O)c1cnc(NC2CCN(S(C)(=O)=O)CC2)nc1N`, for which the GI50 is 2.6 µM in [8]; 4.35 µM in assay [1]; 3 µM in [2]; 0.862 µM in assay [4]; 3.4 µM in assay [5]; 2.54 µM in assay [9]. For the same molecule, the GI50 in assay [6] was 2.16 µM; in [7] it was 3.15 µM; in assay [10], 2.51 µM. The TGI is greater than 25 µM in assay [8]; 13.7 µM in assay [1]; greater than 25 µM in assay [2]; greater than 25 µM in assay [4]; greater than 22.9 µM in [5]; 23.3 µM in assay [9]. Besides, the TGI in assay [6], in assay [7] and in [10] was greater than 25 µM in each case.

For the molecule `CC1=C(C(=O)Nc2ccc(F)c(Cl)c2)C(c2ccccc2O)NC(=S)N1` (stereo not drawn), the GI50 in [8] is 30.2 µM; in assay [2], 35.4 µM; in assay [4], 21.4 µM; in assay [5], 45.8 µM; in assay [6], greater than 50 µM; in assay [7], 19.6 µM. Also, the TGI in assay [8], in [2], in assay [4], in assay [5], in assay [6] and in assay [7] was greater than 50 µM in each case.

Consider `[N-]=[N+]=NC1(Cc2ccccc2)C(=O)c2cccc3c2N(CCC3)C1=O` (stereo not drawn), for which the TGI in assay [8], in [1], in assay [2], in [4], in assay [5] and in assay [9] was greater than 100 µM throughout. For the same molecule, the TGI in [6], in assay [7] and in [10] was greater than 100 µM in each case.

Take `Cc1cc(Nc2ccc(NC(=O)c3ccc(Nc4ccnc5ccccc45)cc3)cc2)nc(N)n1`: the GI50 was 2 µM in assay [1]; 4.81 µM in assay [2]; 2.95 µM in assay [3]; greater than 100 µM in assay [5]; 21.6 µM in [6]; 14.6 µM in [7]. The TGI in assay [1] is 4.65 µM; in [2], 39.6 µM; in [3], greater than 100 µM; in assay [5], greater than 100 µM; in assay [6], greater than 100 µM; in [7], greater than 100 µM.

On to `COC(=O)c1ccc2c(c1)nc(NC(=O)c1ccccc1)n2CCCc1ccccc1`, for which the GI50 in [8] was 2.73 µM; in [1], 5.73 µM; in assay [2], 3.62 µM; in assay [4], 1.22 µM; in assay [5], 3.57 µM; in assay [9] it was 6.92 µM. Further, the GI50 in assay [6] was 3.75 µM; in [7], 3.6 µM; in assay [10], 1.86 µM. The TGI in assay [8], in [1], in assay [2], in assay [4], in [5] and in [9] was greater than 100 µM in each case. The TGI in assay [6], in assay [7] and in [10] was greater than 100 µM each time.

In the case of `CC(C)C1=CC23CCC4C(C)(C(=O)O)CCCC4(C)C2CC1C1C(=O)N(c2ccc(Cc4ccc(N5C(=O)C6C7CC8C9(C)CCCC(C)(C(=O)O)C9CCC8(C=C7C(C)C)C6C5=O)cc4)cc2)C(=O)C13` (stereo not drawn), the TGI is 14.4 µM in assay [8]; 30.4 µM in [1]; 24.9 µM in assay [3]; 8.58 µM in [9]; 17.8 µM in assay [6]; 15.7 µM in assay [7]. Moreover, the TGI in assay [10] was 38.5 µM.

Turning to `CC1(C)N=C(N)N=C(N)N1c1ccc(CCCCc2ccc(Cl)cc2S(=O)(=O)F)c(Cl)c1`, the GI50 in assay [8] is 0.291 µM; in assay [1], 1.65 µM; in assay [2] it was 0.409 µM; in assay [4] it was 0.117 µM; in [5], 2.04 µM; in assay [9], 0.374 µM. Further, the GI50 is 2.62 µM in assay [6], 0.388 µM in [7] and 0.372 µM in [10]. For the same molecule, the TGI was determined as 15.4 µM in assay [8]; 14.9 µM in [1]; 12.8 µM in assay [2]; 13.5 µM in [4]; 18.2 µM in [5]; 14.5 µM in [9]. Besides, the TGI is 17.6 µM in [6], 13.9 µM in [7] and 8.16 µM in [10].

Turning to `O=C1CCC(Cl)=CC2CCCN12` (stereo not drawn), the TGI in [8], in [1], in assay [3], in assay [4], in assay [5] and in assay [9] was greater than 100 µM in each case. The TGI in [6] and in assay [7] was greater than 100 µM each time.

Consider `O=[N+]([O-])c1cccc(C2=NN(c3ccccc3)C[N+](c3ccc(Br)cc3)=N2)c1`, for which the TGI in assay [8], in assay [1], in assay [2], in assay [3], in [4] and in assay [5] was greater than 100 µM in each case. Moreover, the TGI in assay [9], in assay [6] and in assay [7] was greater than 100 µM each time.

As to `CCOC(=O)C1=CN(C)C=C(C(=O)OCC)C1c1cc(Br)c(OCC)c(OC)c1`, the GI50 in [8] was greater than 100 µM; in assay [1], greater than 100 µM; in assay [2], 41.1 µM; in [4] it was 43.5 µM; in assay [5] it was 53 µM; in assay [9] it was 34.5 µM. Besides, the GI50 is greater than 100 µM in [6], 81.7 µM in assay [7] and greater than 100 µM in [10]. Besides, the TGI in [8], in assay [1], in assay [2], in assay [4], in assay [5] and in assay [9] was greater than 100 µM each time. The TGI in assay [6], in [7] and in assay [10] was greater than 100 µM in each case.

For `CN1CC(=O)N2Cc3ccccc3-n3cccc3C2C1` (stereo not drawn), the TGI in [8], in [1], in assay [2], in [3], in assay [4] and in assay [5] was greater than 100 µM in each case. Moreover, the TGI in assay [9], in assay [6] and in assay [7] was greater than 100 µM each time.

With `CC(=O)Nc1ccc(S(=O)(=O)N2C(=O)CCC2C(=O)Nc2ccc(Br)cc2)cc1` (stereo not drawn), the GI50 was 1.89 µM in assay [8]; 2.64 µM in [1]; 2.11 µM in assay [2]; 2.63 µM in [4]; 4.37 µM in assay [5]; 2.76 µM in assay [9]. The figures for the GI50 in assay [6], in assay [7] and in assay [10] were 2.13 µM, 1.6 µM and 1.49 µM, respectively. For the same molecule, the TGI amounted to 11.3 µM in [8]; 9.17 µM in assay [1]; 12.1 µM in assay [2]; 24.5 µM in assay [4]; 17.7 µM in [5]; 14.7 µM in assay [9]. Further, the TGI amounted to 12.2 µM in assay [6], 13.4 µM in assay [7] and 11 µM in assay [10].

With `Cc1cc(Cl)cc(OCCn2cc(F)cn2)c1-c1nc(N)nc2c1CN(C(=O)NCC(C)(F)F)C2`, the GI50 in [8] is 0.114 µM; in assay [1], 0.0684 µM; in assay [2], 0.131 µM; in assay [4], 0.0414 µM; in assay [5], 0.755 µM; in assay [9], 0.0355 µM. Besides, the GI50 in assay [6] was 0.184 µM; in assay [7], 0.116 µM; in assay [10], 0.0507 µM. The TGI is greater than 100 µM in assay [8]; greater than 100 µM in assay [1]; greater than 93.9 µM in assay [2]; greater than 100 µM in [4]; greater than 100 µM in [5]; greater than 100 µM in assay [9]. In addition, the TGI in [6], in assay [7] and in assay [10] was greater than 100 µM in each case.

Source of the values: PubChem BioAssay (NCI).
